Test [1] has as its system defense genes in plants. The following applies: compared among vitamin B1, vitamin B6 and vitamin C.
In test [2] the test system is PAL, APX and HMGR defense genes. The following applies: tomato stem soaked in aqueous solution at 50 u uM; FIG. 4.
Test [3] relates to PR1, PBZ1 and POX22.3 defense genes. To be noted: FIG. 1.
Test [4] has the same test system.
The subject of test [5] is Xanthomonas oryzae pv. oryzae KX021. To be noted: bacterial leaf blight in rice; for Degree of the disease severity: distance from inoculated points to symptoms; for Control value(%): versus Tween 80-treated rice, HCl.
Test [6] has as its system Magnaporthe grisea KJ201. The test is classed as in vivo. To be noted: rice blast; for Degree of the disease severity: 1 week after inoculation, scale 0~10; for Control value(%): versus Tween 80-treated rice.
The test system of test [7] is PR1, PBZ1 and POX22.3 defense genes. To be noted: in vivo.
In test [8] the test system is Magnaporthe grisea KJ201. The following applies: rice blast; for Degree of the disease severity: 28° C., 1 day, inoculated at fourth-leaf stage, scale 0~10; for Control value(%): versus distilled water-treated rice, HCl.
[9] abbreviates: 20 mM + Tween 80 (250 ppm) spray.
The mark [10] stands for this setting: 50 mM + Tween 80 (250 ppm) spray.

Molecules are shown by their SMILES. Counter-ions that a name gives are not always drawn. Like-named read-outs stand apart in the source and are kept apart here. Some results are limits rather than exact numbers.

With `Cc1ncc(C[n+]2csc(CCO)c2C)c(N)n1` [vitamin B1], the “Effectiveness for inducing the expression of defense genes in plants” value in test [1] is recorded as “the most effective”.
On to `Cc1ncc(C[n+]2csc(CCO)c2C)c(N)n1` [Vitamin B1 HCl, thiamine HCl], for which the “Time by which all the defense genes were expressed” value in test [2] was not above 1 h. Moreover, the “Expression of defense genes compared to groups A and B” value in test [3] (rice treated with 50 mM and then inoculated with rice blast fungus (group C)) is “considerably increased”; in test [4] (rice treated with 50 mM and then inoculated with leaf blight bacteria (group C), FIG. 3), “considerably increased”. Further, in test [3] (rice treated with 50 mM only (group B)), the “Time at which expression of defense genes was detected” value stood at 24 h. Moreover, the “Time after inoculation at which expression of all three defense genes was detected” value in test [3] (rice treated with 50 mM, inoculated with rice blast fungus 24 hours later (group C)) is 24 h; in test [4] (in vivo), 24 h. Also, the “Time after treatment at which expression of defense genes was detected” value in test [4] (in vivo) was found to be 24 h. Besides, the “Degree of the disease severity” value stood at 8.7 ± 0.6 in test [5] (5 mM + Tween 80 (250 ppm) spray, 1 week after inoculation); 4.2 ± 1.4 in test [5] (10 mM + Tween 80 (250 ppm) spray, 1 week); 0.2 ± 0.3 in test [5] (50 mM + Tween 80 (250 ppm) spray, 1 week); 0.3 ± 0.1 in test [5] (100 mM + Tween 80 (250 ppm) spray, 1 week); 6.5 ± 0.6 in test [6] (5 mM + Tween 80 (250 ppm) spray, inoculated 4 hours after treatment); 5.8 ± 1.5 in test [6] (10 mM + Tween 80 (250 ppm) spray). Besides, the “Degree of the disease severity” value in test [6] (setting [9]) was 2.3 ± 1.4; in test [6] (setting [10]), 2.8 ± 1.5; in test [6] (100 mM + Tween 80 (250 ppm) spray), 1.1 ± 0.8; in test [8] (seeds soaked at 20 mM), 5.4 ± 3.2; in test [8] (seeds soaked at 50 mM), 2.3 ± 1.9. In addition, the “Control value(%)” value in test [5] (5 mM + Tween 80 (250 ppm)) is on record as 10.3 ± 6.2%; in test [5] (5 mM + Tween 80 (250 ppm), listed as vitamin B1 hydrochloride), “about 30%”; in test [5] (10 mM + Tween 80 (250 ppm)) it was 56.3 ± 14.4%; in test [5] (10 mM + Tween 80 (250 ppm), listed as vitamin B1 hydrochloride), “not less than 56%”; in test [5] (20 mM + Tween 80 (250 ppm)), 68.3 ± 25.9%; in test [5] (20 mM + Tween 80 (250 ppm), listed as vitamin B1 hydrochloride), not below 68%. For the same molecule, the “Control value(%)” value in test [5] (50 mM + Tween 80 (250 ppm)) is 97.6 ± 3.1%; in test [5] (50 mM + Tween 80 (250 ppm), listed as vitamin B1 hydrochloride) it was not below 97%; in test [5] (100 mM + Tween 80 (250 ppm)), 97.2 ± 1.0%; in test [5] (100 mM + Tween 80 (250 ppm), listed as vitamin B1 hydrochloride), not below 97%; in test [6] (5 mM + Tween 80 (250 ppm) spray, HCl), 21.2 ± 7.2%; in test [6] (5 mM + Tween 80 (250 ppm) spray, listed as vitamin B1 hydrochloride, HCl), “not more than 30%”. Further, the “Control value(%)” value is 30.3 ± 18.2% in test [6] (10 mM + Tween 80 (250 ppm) spray, HCl); “not more than 30%” in test [6] (10 mM + Tween 80 (250 ppm) spray, listed as vitamin B1 hydrochloride, HCl); 72.7 ± 17.0% in test [6] (setting [9]); 66.7 ± 18.2% in test [6] (setting [10]); 87.3 ± 9.7% in test [6] (100 mM + Tween 80 (250 ppm) spray, HCl); “about 87%” in test [6] (100 mM + Tween 80 (250 ppm) spray, listed as vitamin B1 hydrochloride, HCl). The “Control value(%)” value was 44.4 ± 32.8% in test [8] (seeds soaked at 20 mM); 44% in test [8] (seeds soaked at 20 mM, listed as vitamin B1 hydrochloride); 76.8 ± 19.5% in test [8] (seeds soaked at 50 mM); 77% in test [8] (seeds soaked at 50 mM, listed as vitamin B1 hydrochloride). Further, the “Time after treatment at which all defense genes tested were induced to express” value in test [7] was 4 h.
